Experimental findings from US9504725B2, “Compositions and functional foods for treating and preventing obesity using polygonum cuspidatum butanol fraction and ethyl acetate fraction” (KOREA INSTITUTE OF ORIENTAL MEDICINE, priority 2009, dated 2016) are described below.

The structures appear in SMILES notation.

Assay [1] in a line: Inhibitory effect on short term absorption of lipid emulsions in animals (triglyceride after oral lipid emulsion). The assay is classed as in vivo, male wistar rats.
Assay [2] can be described thus: Obesity-preventive effect in high-fat diet-fed mice (body weight, fats, adipocyte size, serum lipids, fatty liver, insulin). The assay is classed as in vivo, male C57BL/6 mice.
Assay [3] has as its target T1, porcine pancreatic lipase (Sus scrofa, UniProt P00591).
T1 construct: purchased Sigma, St. Louis, Mo., USA
T1 sequence (P00591 1-450): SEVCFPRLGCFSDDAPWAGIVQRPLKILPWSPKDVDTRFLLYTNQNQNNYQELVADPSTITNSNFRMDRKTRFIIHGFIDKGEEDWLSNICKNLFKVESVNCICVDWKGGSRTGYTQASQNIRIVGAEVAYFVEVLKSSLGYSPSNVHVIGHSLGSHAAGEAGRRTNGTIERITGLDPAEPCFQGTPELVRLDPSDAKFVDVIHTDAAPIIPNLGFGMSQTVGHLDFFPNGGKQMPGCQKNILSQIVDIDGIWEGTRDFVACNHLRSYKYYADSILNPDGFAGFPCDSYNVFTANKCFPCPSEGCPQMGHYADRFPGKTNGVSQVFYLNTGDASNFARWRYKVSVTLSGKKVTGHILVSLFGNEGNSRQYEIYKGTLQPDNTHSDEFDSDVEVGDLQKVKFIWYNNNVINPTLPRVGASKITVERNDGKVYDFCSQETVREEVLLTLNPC
As to the kind of experiment: Inhibition of porcine pancreatic lipase activity (p-NPB hydrolysis). The assay is classed as biochemical.

[4] abbreviates: high-fat feed mixed with drug (POCU 1%, Xenical 0.1%), 10 weeks.

Turning to `CCCCCCCCCCC[C@@H](C[C@@H]1OC(=O)[C@H]1CCCCCC)OC(=O)[C@H](CC(C)C)NC=O` [Xenical, tetrahydrolipstatin (orlistat)], the “Concentration of serum triglyceride” value in assay [1] (200 mg/kg oral with lipid emulsion, 0 h (before administration)) was 159.6 ± 19.0 mg/dL; in assay [1] (200 mg/kg oral with lipid emulsion, 1 h), 133.7 ± 11.3 mg/dL; in assay [1] (200 mg/kg oral with lipid emulsion, 2 h), 124.4 ± 18.0 mg/dL; in assay [1] (200 mg/kg oral with lipid emulsion, 3 h), 118.1 ± 24.5 mg/dL; in assay [1] (200 mg/kg oral with lipid emulsion, 4 h), 120.9 ± 12.5 mg/dL. Besides, the adipocyte size in assay [2] (H&E stained adipose tissue, high-fat diet group 125 μm) is 75 μm. Also, in assay [2] (setting [4]), the gonadal fat weight was 0.17 g. In addition, the perirenal fat weight in assay [2] (setting [4]) worked out at 0.04 g. The subcutaneous fat weight in assay [2] (setting [4]) came out at 0.14 g. Also, the “extent of body weight gain” value in assay [2] (high-fat feed mixed with drug, 10 weeks, high-fat diet group 10.9 g) is recorded as 6.1 g.

Turning to `Oc1ccc(/C=C/c2cc(O)cc(O)c2)cc1` [Resveratrol, trans-resveratrol], the “Concentration of serum triglyceride” value in assay [1] (10 mg/kg oral with lipid emulsion, 0 h (before administration)) is listed as 147.0 ± 4.2 mg/dL; in assay [1] (10 mg/kg oral with lipid emulsion, 1 h) it was 212.5 ± 14.0 mg/dL; in assay [1] (10 mg/kg oral with lipid emulsion, 2 h), 219.3 ± 77.3 mg/dL; in assay [1] (10 mg/kg oral with lipid emulsion, 3 h), 195.5 ± 25.9 mg/dL; in assay [1] (10 mg/kg oral with lipid emulsion, 4 h) it was 193.2 ± 12.1 mg/dL; in assay [1] (50 mg/kg oral with lipid emulsion, 0 h (before administration)), 146.1 ± 1.4 mg/dL. For the same compound, the “Concentration of serum triglyceride” value turned out to be 208.3 ± 31.0 mg/dL in assay [1] (50 mg/kg oral with lipid emulsion, 1 h); 228.0 ± 58.4 mg/dL in assay [1] (50 mg/kg oral with lipid emulsion, 2 h); 198.8 ± 62.3 mg/dL in assay [1] (50 mg/kg oral with lipid emulsion, 3 h); 183.7 ± 50.3 mg/dL in assay [1] (50 mg/kg oral with lipid emulsion, 4 h); 228.5 ± 8.4 mg/dL in assay [1] (250 mg/kg oral with lipid emulsion, 2 h). For the same compound, the inhibition at 50 µg/mL in assay [3] (50 μg/mL, read-out: Inhibitory effect on pancreatic lipase activity (%)) was determined as 32.4 ± 3%. Besides, the inhibition at 100 µg/mL in assay [3] (100 μg/mL, read-out: Inhibitory effect on pancreatic lipase activity (%)) turned out to be 47.2 ± 1.6%. Further, the half-maximal inhibitory concentration (IC50) in assay [3] (porcine pancreatic lipase, p-NPB substrate) was 543 µM.

As usually defined, the IC50 is the concentration at which inhibition is half-maximal.
